target: T1, E. coli DdlB enzyme (D-alanine:D-alanine ligase) (Escherichia coli, UniProt P07862); assay: biochemical; conditions: read-out: DdlB RA
T1 construct: made in house; host or cells: E. coli

Row | Compound | remaining activity at 2500 µM [%]
1 | Nc1cccc(C(F)(F)F)n1 [FLD091] | 100
2 | Oc1ccccc1 [FLD105] | 95
3 | N[C@H](c1ccccc1)[C@@H](N)c1ccccc1 [FLD112] | 100
4 | N#Cc1ccc(CN)cc1 [FLD152] | 97

same assay, conditions: residual activity of DdlB; fragment library screening; tested concentration 2.5 mM; read-out: DdlB RA

Row | Compound | remaining activity at 2500 µM [%]
5 | O=[N+]([O-])c1ccc(O)c(Cl)c1 [FLD092] | 97
6 | O=C(c1ccc(O)cc1)c1ccc(O)cc1 [FLD093] | 97
7 | Cc1cc(C(=O)O)n(C)n1 [FLD094] | 96
8 | Clc1ccc(Cl)nn1 [FLD095] | 98
9 | O=C(O)c1ccco1 [FLD096] | 95
10 | O=C(O)c1cc(O)ccc1Cl [FLD097] | 94
11 | CCOC(=O)Nc1ccccc1 [FLD098] | 96
12 | CCOc1ccc(O)cc1 [FLD099] | 100
13 | Cc1nc(C(=O)O)cs1 [FLD100] | 93
14 | CC(=O)NC1CCC(=O)CC1 [FLD101] | 98
15 | CNC(C)C(O)c1ccccc1 (centres unmarked) [FLD102] | 97
16 | Nc1ncn[nH]1 [FLD103] | 95
17 | CCc1occc(=O)c1O [FLD104] | 86
18 | CCOC(=O)c1[nH]cnc1C [FLD106] | 100
19 | NC(=S)Nc1ccc(F)cc1 [FLD107] | 95
20 | O=C(O)c1cc2ccccc2oc1=O [FLD109] | 96
21 | NS(=O)(=O)c1ccccc1 [FLD110] | 110
22 | Nc1cccc(N)c1 [FLD111] | 92
23 | N#Cc1ccccc1Br [FLD114] | 99
24 | Cc1ccc(C)c(S(=O)(=O)O)c1 [FLD115] | 94
25 | N#CCc1ccc(C(F)(F)F)cc1 [FLD116] | 94
26 | Clc1cc(Cl)ncn1 [FLD117] | 97
27 | Nc1ccc(Br)cc1N [FLD118] | 90
28 | Cc1cc(C)nc(NC#N)n1 [FLD119] | 100
29 | COc1cc(N)ccn1 [FLD120] | 97

Row | Compound | remaining activity at 2500 µM [%]
30 | OCc1ccc(Br)cc1 [FLD122] | 96
31 | N#Cc1cncc(Br)c1 [FLD123] | 97
32 | N#Cc1ccc(N2CCCNCC2)nc1 [FLD124] | 62
33 | Nc1ncccc1O [FLD125] | 97
34 | Nc1nnc(C2CC2)s1 [FLD126] | 80
35 | O=C1N[C@@H](c2ccccc2)CO1 [FLD127] | 99
36 | CSc1nc(N)n[nH]1 [FLD128] | 97
37 | CC(=O)Nc1ccccc1C(=O)O [FLD129] | 98
38 | Cc1cc(C)[nH]n1 [FLD130] | 100
39 | Nc1cccc(CC(=O)O)c1 [FLD131] | 97
40 | Nc1c(Br)cc(Br)cc1C(=O)O [FLD132] | 100
41 | Nc1ncccn1 [FLD133] | 102
42 | O=C(O)c1cccnc1F [FLD134] | 98
43 | COc1c(C)[nH]ccc1=O [FLD135] | 96
44 | N#Cc1ccsc1N [FLD136] | 100
45 | N#Cc1c(N)cccc1F [FLD137] | 98
46 | Nn1cnnc1 [FLD138] | 96
47 | CC(=O)c1ccc[nH]1 [FLD139] | 95
48 | CNc1nnc(C(F)(F)F)s1 [FLD140] | 94
49 | O=C(O)CCc1cccnc1 [FLD141] | 95
50 | O=[N+]([O-])c1ccc(Cl)nc1 [FLD142] | 92
51 | COC(=O)c1cscc1N [FLD143] | 92
52 | Nc1ncnc2[nH]ccc12 [FLD144] | 94
53 | Nc1ccc(Br)cn1 [FLD145] | 92
54 | O=C(O)Cc1cccs1 [FLD146] | 95

Row | Compound | remaining activity at 2500 µM [%]
55 | Nc1ccc2nsnc2c1 [FLD147] | 100
56 | O=C(O)Cc1ccc(F)c(C(F)(F)F)c1 [FLD148] | 100
57 | N#Cc1ccc(CCO)cc1 [FLD149] | 100
58 | Cc1nnc(N)s1 [FLD150] | 95
59 | O=C(O)c1ccncc1F [FLD151] | 98
60 | Cc1cc(N)[nH]n1 [FLD153] | 98
61 | Clc1ncnc2[nH]ccc12 [FLD154] | 95
62 | O=C1Cc2cc([N+](=O)[O-])ccc2N1 [FLD155] | 99
63 | O=C(O)Cc1c(Cl)cccc1Cl [FLD156] | 100
64 | NCc1nc2ccccc2[nH]1 [FLD157] | 105
65 | Fc1cc(Br)ccc1CN1CCCNCC1 [FLD158] | 63
66 | COc1ccc(Br)cc1OC [FLD159] | 98
67 | OCCc1ccc(Cl)cc1 [FLD160] | 92
68 | CCc1cccc(N)n1 [FLD162] | 100
69 | N#Cc1ccc(F)c(F)c1 [FLD163] | 95
70 | CCOC(=O)Cc1ccccn1 [FLD164] | 97
71 | Cc1ccc(O)c(C)c1 [FLD165] | 91
72 | c1ccc2c(c1)CCNC2 [FLD166] | 77
73 | Cc1cc(C)nc(C)c1 [FLD167] | 95
74 | CC(O)c1ccccc1 (centres unmarked) [FLD168] | 98
75 | Brc1ccccn1 [FLD169] | 100
76 | NCCc1ccc(Br)cc1 [FLD170] | 93
77 | Cc1nc2ccccc2nc1O [FLD171] | 95
78 | Oc1c(F)c(F)c(F)c(F)c1F [FLD172] | 92
79 | Oc1cccc(C(F)(F)F)c1 [FLD173] | 91

Row | Compound | remaining activity at 2500 µM [%]
80 | NCc1ccccc1Cl [FLD174] | 100
81 | NCCc1cccc(F)c1 [FLD175] | 94
82 | CC(C)c1cccc(O)c1 [FLD176] | 95
83 | OCCc1ccccc1C(F)(F)F [FLD177] | 100
84 | CCOC(=O)c1cccnc1C [FLD178] | 99
85 | CNc1ccccc1N [FLD179] | 84
86 | N#Cc1ccccn1 [FLD180] | 98
87 | CCOC(=O)C(C#N)c1ccccc1 (centres unmarked) [FLD181] | 89
88 | C#Cc1cccc(OC)c1 [FLD182] | 91
89 | N#CCc1ccsc1 [FLD183] | 100
90 | Clc1nccs1 [FLD184] | 98
91 | COc1ccncc1 [FLD185] | 99
92 | CC1=NCCC1 [FLD186] | 71
93 | CC1=NCCS1 [FLD187] | 100
94 | CC1=NC(C)(C)CO1 [FLD188] | 91
95 | CCOC(=O)N1CCC(N)CC1 [FLD189] | 98
96 | CC(=O)N1CCC(=O)CC1 [FLD190] | 100
97 | CCOC(=O)N1CCNCC1 [FLD191] | 100
98 | CCNCc1ccncc1 [FLD193] | 91
99 | Cc1ncc(CO)c(CO)c1O [FLD194] | 99
100 | Cc1cc(C)n(CO)n1 [FLD195] | 97
101 | N#Cc1cccnc1N [FLD196] | 99
